Data taken from patent US7592326B2, “Method for stimulating the immune, inflammatory or neuroprotective response” (priority 2004, dated 2009).

Experiments:
ERK [1] = assay: Western blot signaling in human DCs: ERK; assay type: cell-based; conditions: data not shown
Method: Human PBMC were isolated by Ficoll density gradient centrifugation from leukopacks supplied by the Department of Transfusion Medicine (Clinical Center, National Institute of Health, Bethesda, Md.). Monocytes were purified (>95%) from human PBMC with MACS CD14 monocyte isolation kit (Miltenyi Biotech Inc., Auburn, Calif.) according to the manufacturer's instruction. DCs were generated as described previously (Yang et al., 2001). In brief, DCs were generated by incubating purified monocytes at 2×10^5/ml in RPMI 1640 containing 10% FBS, 2 mM glutamine, 25 mM HEPES, 100 U/ml penicillin, 100 ug/ml streptomycin, 50 ng/ml recombinant human GM-CSF (PeproTech, Rocky Hill, N.J.), and 50 ng/ml recombinant human IL-4 (PeproTech) at 37° C. in a CO2 (5%) incubator for 7 days. On day 3 and 5 of the incubation, half of the culture medium was replaced with pre-warmed (37° C.) fresh GM-CSF- and IL-4-containing medium. On day 7, DCs were collected, washed three times with PBS, and serum-starved for 8 hours by incubating in serum-free RPMI-1640 containing GM-CSF and IL-4 (2×10^5/ml) at 37° C. in a CO2 (5%) incubator. Subsequently, DCs (2×10^6/sample) were incubated at 37° C. in the absence or presence of c-di-GMP or GMP (Sigma, St. Louis, Mo.) at concentrations specified for 5 or 30 minutes. […]

ERK [2] = assay: Western blot signaling in human macrophages: ERK; assay type: cell-based
Method: Preparation of macrophages was performed as previously described (Akagawa et al., 1996). Briefly, fully differentiated macrophages from human PBMC were isolated from leukapheresis preparations obtained by the Blood Bank, Clinical Center, National Institutes of Health, Bethesda, Md. The leukocyte-rich preparation was overlaid on Accu-prep in 50 ml tubes and the tubes were centrifuged at 800 × g for 20 min at room temperature. PBMC fractions were collected, washed once with PBS at room temperature and twice with complete medium at 4° C. and resuspended in the same medium. Monocytes were further purified by using iso-osmotic Percoll gradient (Amersham Biosciences). At this stage, the purity of monocytes was higher than 90%. One and half million cells were placed on a 12-well plate in 1.5 ml RPMI1640 containing 50 ng/ml human M-CSF. On day 4, 1 ml of the medium was replaced with 1 ml of fresh medium containing 50 ng human M-CSF. On day 7, non-adherent cells were washed out and adherent cells were used as macrophages.
Western blot analysis of macrophages was performed as previously described (Matsuyama et al., 2003). Briefly, prepared macrophages were starved in RPMI 1640 without FCS for 10 h. Cells were rinsed three times with PBS, and treated with cyclic dinucleotide for various times. Cells were lysed on ice for 20 min in a buffer containing 50 mM NaCl, 20 mM Tris-HCl, 50 mM sodium fluoride, 30 mM Na4P207, 5 mM EGTA, 3 mM sodium orthovanadate, 1% Triton X-100, 1 mg/ml leupeptin, 1 mM PMSF, 1 mg/ml aprotinin, 1 mg/ml pepstatin A and 100 mM sodium orthovanadate pre-treated with H202. The lysates were spun in a microcentrifuge for 20 min and the supernatants were collected. Proteins were analyzed on 12% polyacrylamide gels by SDS-PAGE and transferred electrophoretically to nitrocellulose membranes at 150 mA for 1 h in a semi-dry system. The membranes were incubated with an antibody against either phosphorylated or nonphosphorylated p38 MAP kinase or ERK, followed by an appropriate secondary Ab coupled with horseradish peroxidase. […]

[3] = test system: influenza virus A/Puerto Rico/8/34 (H1N1, PR8); conditions: in vivo
basophils = assay: SOCS expression in basophils (real-time PCR); assay type: cell-based, human
Method: Whether or not cyclic dinucleotides affected induction of SOCS (Suppresser Of Cytokine Synthesis) expression in basophils treated with CDN's was then tested. […] Cells were treated for 18 h, total RNA isolated, and RT-PCR performed for SOCS-1, SOCS-3, and the HPRT housekeeping gene. The fact that cGpGp also induces SOCS-1 may explain why some inhibition of IL-3-induced IL-13 secretion is observed with this cyclic dinucleotide analog. […] In the current IL-13 assay, the cyclic dinucleotide is added simultaneously with IL-3. The TBDMS-cGpGp likely induces SOCS-1 expression faster and thus accounts for greater inhibition of IL-13. […] While modest inhibitory activity with cGpGp was observed, evidence that cGpGp induces SOCS-1 and sometimes better than TBDMS-cGpGp at this particular time point was observed. These differences might be explained by kinetics and it may be that SOCS gene expression would be higher following TBDMS-cGpGp treatment when examined at an earlier time point.

With `Nc1nc(=O)c2ncn([C@@H]3OC4COP(=O)(O)O[C@H]5[C@@H](O)[C@H](n6cnc7c(=O)nc(N)[nH]c76)O[C@@H]5COP(=O)(O)OC4C3O)c2[nH]1` (stereo partly shown) [c-di-GMP, Bis(3′→5′)-cyclic diguanylic acid] the “activation of ERK” value (ERK [1]) was “did not activate”, the ERK phosphorylation (ERK [2]; 10- and 100 uM, human macrophages, FIG. 13B) was “activate” and the “time of peak ERK phosphorylation” value (ERK [2]; absent at 20 min) was 5 min. For the same molecule, the “magnitude of ERK phosphorylation relative to LPS” value (ERK [2]; under the conditions tested) was “weaker”, the “outcome compared to control mice” value [3] was “increased survival, less weight loss” and the “time of SOCS mRNA peak” value (basophils) was about 18 h. For the same molecule, the “SOCS-1 mRNA” value (basophils; 18 h treatment) was “induced”.
